# Results published in ChEMBL document CHEMBL5154819 (Eur J Med Chem, 2022).
# Legend:
# [1] = Toxicity in Sprague-Dawley rat assessed as change in RBC level at 10 mg/kg , iv administered every day for 4 weeks and measured after 8 weeks; format: organism-based, Erythrocyte; details: in vivo, 1344 h
# [2] = Toxicity in male Sprague-Dawley rat assessed as decrease in RBC level at 10 mg/kg , iv administered every day for 4 weeks; format: organism-based, Erythrocyte; design: scale not given: the % may be the effect or the level left; details: in vivo, 672 h
# Mus musculus [3] = experiment: Analgesic activity in acetic acid induced ICR mouse assessed as average writhing times at 0.25 mg/kg, iv administered for 15 mins followed by acetic acid injection and measured within 15 mins (reference value: 21.1 +/- 16.3); format: functional; details: time 30 min, 0.5 h
# Mus musculus [4] = experiment: Analgesic activity in iv dosed ICR mouse assessed as reduction in acetic acid induced writhing administered for 15 mins followed by acetic acid injection and measured within 15 mins; format: functional; details: 0.5 h, time 30 min
# [5] = Toxicity in Sprague-Dawley rat assessed as effect on reticulocytes at 10 mg/kg , iv administered every day for 4 weeks and measured after 8 weeks; format: organism-based; details: in vivo, 1344 h
# [6] = Drug metabolism in Sprague-Dawley rat plasma assessed as cis-(R)-2-(4-(((1S,2S)-2-hydroxycyclopentyl)methyl)phenyl)propanoic acid metabolite formation at 3 mg/kg, iv measured after 2 hrs by UHPLC-MS/MS analysis; format: ADME, organism-based; details: in vivo
# [7] = Drug metabolism in Sprague-Dawley rat plasma assessed as trans-(S)-2-(4-(((1S,2R)-2-Hydroxycyclopentyl)methyl)phenyl)propanoic acid metabolite formation at 3 mg/kg, iv measured after 2 hrs by UHPLC-MS/MS analysis; format: ADME, organism-based; details: in vivo
# [8] = Toxicity in NZW rabbit assessed as necrosis in endothelial cells at 10 mg/kg/day, iv administered once daily for 7 days and measured after 3 to 14 days by H and E staining based optical microscopy analysis; format: organism-based, Oryctolagus cuniculus; details: in vivo, time 3-14 day
# [9] = Toxicity in Sprague-Dawley rat assessed as change in mean corpuscular hemoglobin concentration at 10 mg/kg , iv administered every day for 4 weeks; format: organism-based; details: in vivo, 672 h
# [10] = Toxicity in Sprague-Dawley rat assessed as change in mean corpuscular hemoglobin concentration at 10 mg/kg , iv administered every day for 4 weeks and measured after 8 weeks; format: organism-based; details: in vivo, 1344 h
# [11] = Toxicity in female Sprague-Dawley rat assessed as decrease in RBC level at 10 mg/kg , iv administered every day for 4 weeks; format: organism-based, Erythrocyte; design: scale not given: the % may be the effect or the level left; details: in vivo, 672 h
# Mus musculus [12] = experiment: Antinociceptive activity in acetic acid induced ICR mouse assessed as inhibition effect at 0.13 mg/kg, iv administered for 15 mins followed by acetic acid injection and measured within 15 mins; format: functional; details: 0.5 h, time 30 min
# Mus musculus [13] = experiment: Analgesic activity in acetic acid induced ICR mouse assessed as average writhing times at 1 mg/kg, iv administered for 15 mins followed by acetic acid injection and measured within 15 mins (reference value: 21.1 +/- 16.3); format: functional; details: time 30 min, 0.5 h
# [14] = Toxicity in Beagle dog assessed as change in mean corpuscular hemoglobin concentration at 10 mg/kg , iv administered every day for 4 weeks; format: organism-based, Canis lupus familiaris; details: in vivo, 672 h
# [15] = Toxicity in Beagle dog assessed as change in hemoglobin level at 10 mg/kg , iv administered every day for 4 weeks; format: organism-based, Canis lupus familiaris; details: in vivo, 672 h
# [16] = Drug metabolism in Sprague-Dawley rat plasma assessed as cis-(R)-2-(4-(((1R,2R)-2-Hydroxycyclopentyl)methyl)phenyl)propanoic acid metabolite formation at 3 mg/kg, iv measured after 2 hrs by UHPLC-MS/MS analysis; format: ADME, organism-based; details: in vivo
# [17] = Drug metabolism in Beagle dog plasma assessed as cis-(R)-2-(4-(((1R,2R)-2-Hydroxycyclopentyl)methyl)phenyl)propanoic acid metabolite formation at 3 mg/kg, iv measured after 2 hrs by UHPLC-MS/MS analysis; format: ADME, organism-based, Canis lupus familiaris; details: in vivo
# [18] = Toxicity in Sprague-Dawley rat assessed as change in hemoglobin level at 10 mg/kg , iv administered every day for 4 weeks and measured after 8 weeks; format: organism-based; details: in vivo, 1344 h
# [19] = Drug metabolism in Beagle dog plasma assessed as trans-(R)-2-(4-(((1S,2R)-2-Hydroxycyclopentyl)methyl)phenyl)propanoic acid metabolite formation at 3 mg/kg, iv measured after 2 hrs by UHPLC-MS/MS analysis; format: ADME, organism-based, Canis lupus familiaris; details: in vivo
# [20] = Toxicity in Sprague-Dawley rat assessed as change in red cell distribution width at 10 mg/kg , iv administered every day for 4 weeks; format: organism-based; details: in vivo, 672 h
# [21] = Plasma protein binding in cynomolgus monkey at 600 to 15000 ng/ml measured after 6 hrs by LC-MS/MS analysis; format: ADME, cell-free, Macaca fascicularis; details: dose 600-15000 ng/ml, read-out: PPB
# [22] = Plasma protein binding in Sprague-Dawley rat at 600 to 15000 ng/ml measured after 6 hrs by LC-MS/MS analysis; format: ADME, cell-free; details: dose 600-15000 ng/ml, read-out: PPB
# Mus musculus [23] = experiment: Analgesic activity in acetic acid induced ICR mouse assessed as average writhing times at 0.13 mg/kg, iv administered for 15 mins followed by acetic acid injection and measured within 15 mins (reference value: 21.1 +/- 16.3); format: functional; details: time 30 min, 0.5 h
# [24] = Plasma protein binding in human at 600 to 15000 ng/ml measured after 1 to 8 hrs by LC-MS/MS analysis; format: ADME, cell-free; details: dose lower 600 ng/ml, time lower 1 hrs, dose upper 15000 ng/ml, time upper 8 hrs, read-out: PPB
# [25] = Toxicity in Beagle dog assessed as change in RBC level at 10 mg/kg , iv administered every day for 4 weeks; format: organism-based, Canis lupus familiaris, Erythrocyte; details: in vivo, 672 h
# [26] = Drug metabolism in Sprague-Dawley rat plasma assessed as trans-(R)-2-(4-(((1S,2R)-2-Hydroxycyclopentyl)methyl)phenyl)propanoic acid metabolite formation at 3 mg/kg, iv measured after 2 hrs by UHPLC-MS/MS analysis; format: ADME, organism-based; details: in vivo
# [27] = Solubility of the compound in pre-warmed distilled water at 500 mg measured after 30 mins by HPLC analysis; format: physicochemical
# [28] = Toxicity in Sprague-Dawley rat assessed as red cell distribution width at 10 mg/kg , iv administered every day for 4 weeks and measured after 8 weeks; format: organism-based; details: in vivo, 1344 h
# [29] = Toxicity in male Sprague-Dawley rat assessed as decrease in hemoglobin level at 10 mg/kg , iv administered every day for 4 weeks; format: organism-based; design: scale not given: the % may be the effect or the level left; details: in vivo, 672 h
# Mus musculus [30] = experiment: Analgesic activity in acetic acid induced ICR mouse assessed as average writhing times at 0.50 mg/kg, iv administered for 15 mins followed by acetic acid injection and measured within 15 mins (reference value: 21.1 +/- 16.3); format: functional; details: dose 0.5 mg/kg, time 30 min
# [31] = Plasma protein binding in Beagle dog at 600 to 15000 ng/ml measured after 6 hrs by LC-MS/MS analysis; format: ADME, cell-free, Canis lupus familiaris; details: dose 600-15000 ng/ml, read-out: PPB
# [32] = Toxicity in Beagle dog assessed as effect on reticulocytes at 10 mg/kg, iv administered every day for 4 weeks; format: organism-based, Canis lupus familiaris; details: in vivo, 672 h
# [33] = Plasma protein binding in CD-1 mouse at 600 to 15000 ng/ml measured after 6 hrs by LC-MS/MS analysis; format: ADME, cell-free; details: dose 600-15000 ng/ml, read-out: PPB
# [34] = Toxicity in Beagle dog assessed as change in red cell distribution width at 10 mg/kg , iv administered every day for 4 weeks; format: organism-based, Canis lupus familiaris; details: in vivo, 672 h
# [35] = Toxicity in NZW rabbit assessed as infiltration of inflammatory cells at 10 mg/kg/day, iv administered once daily for 7 days and measured after 3 to 14 days by H and E staining based optical microscopy analysis; format: organism-based, Oryctolagus cuniculus; details: in vivo, time 3-14 day
# Mus musculus [36] = experiment: Antinociceptive activity in acetic acid induced ICR mouse assessed as inhibition effect at 0.25 mg/kg, iv administered for 15 mins followed by acetic acid injection and measured within 15 mins; format: functional; details: 0.5 h, time 30 min
# Mus musculus [37] = experiment: Antinociceptive activity in acetic acid induced ICR mouse assessed as inhibition effect at 1 mg/kg, iv administered for 15 mins followed by acetic acid injection and measured within 15 mins; format: functional; details: 0.5 h, time 30 min
# Rattus norvegicus [38] = species: Rattus norvegicus; experiment: Anti-hyperalgesic activity in carrageenan-induced mechanical hyperalgesia Sprague-Dawley rat model assessed as paw withdrawal threshold measured after 2.5 hrs by paw pressure test; format: functional
# Mus musculus [39] = experiment: Antinociceptive activity in acetic acid induced ICR mouse assessed as inhibition effect at 0.50 mg/kg, iv administered for 15 mins followed by acetic acid injection and measured within 15 mins; format: functional; details: 0.5 h, time 30 min
# Rattus norvegicus [40] = species: Rattus norvegicus; experiment: Antiinflammatory activity in carrageenan-induced Sprague-Dawley rat assessed as paw withdrawal threshold measured after 2.5 hrs by paw pressure test; format: functional
# [41] = Toxicity in female Sprague-Dawley rat assessed as decrease in hemoglobin level at 10 mg/kg , iv administered every day for 4 weeks; format: organism-based; design: scale not given: the % may be the effect or the level left; details: in vivo, 672 h
# [42] = Drug metabolism in Beagle dog plasma assessed as cis-(R)-2-(4-(((1S,2S)-2-hydroxycyclopentyl)methyl)phenyl)propanoic acid metabolite formation at 3 mg/kg, iv measured after 2 hrs by UHPLC-MS/MS analysis; format: ADME, organism-based, Canis lupus familiaris; details: in vivo
# [43] = Toxicity in Sprague-Dawley rat assessed as effect on reticulocytes at 10 mg/kg , iv administered every day for 4 weeks; format: organism-based; details: in vivo, 672 h
smiles,measurement,setting,value
C[C@H](C(=O)O)c1ccc(C[C@H]2CCC[C@@H]2O)cc1.NC(CO)(CO)CO,Activity,[1],Non-Toxic
same,Activity,[2],< 10%
same,Activity,Mus musculus [3],12.8
same,ED50,Mus musculus [4],0.43 mg/kg
same,Activity,[5],Non-Toxic
same,Drug metabolism,[6],Metabolite_Notdetected
same,Drug metabolism,[7],Metabolite_Notdetected
same,Activity,[8],Non-Toxic
same,Activity,[9],Non-Toxic
same,Activity,[10],Non-Toxic
same,Activity,[11],< 10%
same,inhibition in vivo at 0.13 mg/kg,Mus musculus [12],10%
same,Activity,Mus musculus [13],6.7
same,Activity,[14],Non-Toxic
same,Activity,[15],Non-Toxic
same,Drug metabolism,[16],Metabolite_Notdetected
same,Drug metabolism,[17],Metabolite_Notdetected
same,Activity,[18],Non-Toxic
same,Drug metabolism,[19],Metabolite_Notdetected
same,Activity,[20],Non-Toxic
same,fraction unbound at 6 h,[21],< 0.3
same,fraction unbound at 6 h,[22],< 0.3
same,Activity,Mus musculus [23],19
same,fraction unbound,[24],< 0.05
same,Activity,[25],Non-Toxic
same,Drug metabolism,[26],Metabolite_Notdetected
same,solubility at 0.5 h,[27],176 mg/mL
same,Activity,[28],Non-Toxic
same,Activity,[29],< 10%
same,Activity,Mus musculus [30],7.7
same,fraction unbound at 6 h,[31],< 0.3
same,Activity,[32],Non-Toxic
same,fraction unbound at 6 h,[33],< 0.3
same,Activity,[34],Non-Toxic
same,Activity,[35],Non-Toxic
same,inhibition in vivo at 0.25 mg/kg,Mus musculus [36],39.3%
same,inhibition in vivo at 1 mg/kg,Mus musculus [37],68.2%
same,ED50,Rattus norvegicus [38],1.28 mg/kg
same,inhibition in vivo at 0.5 mg/kg,Mus musculus [39],63.5%
same,ED50,Rattus norvegicus [40],8.01 mg/kg
same,Activity,[41],< 10%
same,Drug metabolism,[42],Metabolite_Notdetected
same,Activity,[43],Non-Toxic
